Laboratory results reported in article PMC6271143, “Novel Triphenylantimony(V) and Triphenylbismuth(V) Complexes with Benzoic Acid Derivatives: Structural Characterization, in Vitro Antileishmanial and Antibacterial Activities and Cytotoxicity against Macrophages” (Molecules, 2014).
Converted amounts (≈) assume the structure as drawn. Read-outs that look alike come from different tables or passages of the source.

How the values were obtained:
[1] = tested on: L. amazonensis promastigotes; test: Antileishmanial activity assay (growth inhibition, absorbance at 600 nm) against L. amazonensis promastigotes; assay type: cell-based, Leishmania amazonensis (strain MHOM/BR/1989/BA199); conditions: for IC50: promastigotes, IC50/72 h (source says 48 h), non-linear regression, read-out: IC50 (μM) ± SEM, L. amazonensis strain
Protocol: (§1) The four complexes, their metal salts and their respective free ligands were primarily tested for their activity to investigate whether they inhibit the growth of L. amazonensis and L. infantum promastigotes. The growth rate of the promastigotes incubated for […] in the presence of test compounds was compared to those of nontreated negative control and to those treated with the standard antileishmanial antimony(III) drug tartar emetic.
(§2) Leishmania amazonensis (strain MHOM/BR/1989/BA199) and Leishmania infantum (strain MCAN/BR/2002/BH400) promastigotes were maintained in minimum essential culture medium (α-MEM) (Gibco, Invitrogen, Grand Island, NY, USA) supplemented with 10% (v/v) heat inactivated fetal calf serum (Cultilab, Campinas, SP, Brazil), […] kanamycin, […] ampicillin, 2 mM L-glutamine, […] hemin, 5 mM biopterin, (Sigma-Aldrich), pH 7.0 and incubated at 25 °C [52].
(§3) Complexes 1-4 were evaluated in vitro for their activity against two wild type Leishmania parasites. Log-phase L. amazonensis and L. infantum promastigotes (1 × 10^6 parasites/mL) were seeded in 24-wells cell culture plates with 1.5 mL of α-MEM, incubated under shaking at 25 °C during 72 h in the presence of several concentrations of complex 1–4, free ligands HL1-2, and metal precursors M1-2. Non-treated parasites in the presence of DMSO solution and absence of any test compound were established for growth comparison. Stock solutions of the ligands, 2-acetylsalicylic acid and 3-acetoxybenzoic acid, their metal complexes 1–4, and metal salts, Ph3SbCl2 and Ph3BiCO3 were dissolved in DMSO and diluted in α-MEM cell culture medium to obtain the range of tested concentrations. […] For drug susceptibility assay, Leishmania growth curves were constructed by measuring absorbance at 600 nm. The antileishmanial activity is expressed as IC50/72 h, which is the concentration that reduces cell growth by 50% compared to untreated control (relative growth). All experiments were done at least three times as independent experiments performed in triplicate.
(§4) The IC50 and CC50 values were calculated by nonlinear regression using the software GraphPad Prism 5.0. The acceptable level of significance was 95% (p < 0.05).

[2] = tested on: Pseudomonas aeruginosa (ATCC 27853); test: Minimum inhibitory concentration, broth dilution (NCCLS M7-A6), P. aeruginosa; assay type: cell-based; conditions: visual, 24 h at 37 °C
Protocol: (§5) Antimicrobial activity tests were performed in a quantitative way by determining the minimum inhibitory concentration (MIC) by the standard method for in vitro anti-bacterial susceptibility testing proposed by the National Committee for Clinical Laboratory Standards [NCCLS M7-A6] [56]. Sthaphyloccocus aureus [ATCC6538] and Pseudomonas aeruginosa [ATCC27853] stored in Müller–Hilton broth were sub-cultured for testing in the same medium and incubated for 24 h, respectively, at 37 °C. The bacterial cells of the two strains were suspended in Müller-Hilton broth to produce inocula of 10^8 CFU mL^–1, determined by a spectrophotometric method. Serial dilutions of the compounds, previously dissolved in DMSO, were prepared in 10 test tubes with Müller–Hilton broth to final concentrations from 100 μg mL^–1 to 0.20 μg mL^–1 for P. aeruginosa and S. aureus. An old inoculum of each strain was added to the tubes to obtain final concentrations of 10^5 CFU. […] Tests using tetracycline as positive control and DMSO as negative control were carried out in parallel. All tests were performed in triplicate with full agreement between the results.

[3] = tested on: Staphyloccocus aureus (ATCC 6538); test: Minimum inhibitory concentration, broth dilution (NCCLS M7-A6), S. aureus; assay type: cell-based, Staphylococcus aureus; conditions: for MIC: ATCC 6538, 100% inhibition of growth, visual, 24 h at 37 °C; for d SI (selective index): ratio between MIC in murine macrophages and MIC in Staphylococcus aereus: as printed in footnote d
Protocol: as §5

[4] = tested on: L. infantum promastigotes; test: Antileishmanial activity assay (growth inhibition, absorbance at 600 nm) against L. infantum promastigotes; assay type: cell-based, Leishmania infantum (strain MCAN/BR/2002/BH400); conditions: for IC50: promastigotes, IC50/72 h (source says 48 h), non-linear regression, read-out: IC50 (μM) ± SEM, L. infantum strain
Protocol: as §1, §2, §3, §4

[5] = tested on: mouse peritoneal macrophages; test: Cytotoxicity (MTT assay) against mouse peritoneal macrophages; assay type: cell-based, mouse (Balb/c); conditions: 24 h, murine peritoneal macrophages, read-out: CC50: concentration that is cytotoxic against 50% of macrophages
Protocol: (§6) The in vitro cytotoxicity of the complexes, along their metal salts and ligands, was evaluated by means of the MTT assays towards mouse peritoneal macrophages. The results of in vitro cytotoxic activity are expressed as CC50, which is the concentration of compound that inhibits the viability of macrophages by 50% as compared to untreated macrophages control.
(§7) The concentration of studied compounds that is cytotoxic to 50% of the macrophages (CC50) was determined by the 3-(4,5-dimethylthiazol-2-yl)-2,5 diphenyltetrazolium bromide (MTT) method according to Mosmann. Briefly, peritoneal macrophages were obtained from Balb/c mice after intraperitoneal injection of 2 mL of 3% sodium thioglycolate medium. Mice were euthanized after 72 h, just before removal of peritoneal macrophages by washing with cold RPMI 1640 medium. The procedure was approved by the Internal Ethics Committee in Animal Experimentation (CEUA) of the Federal University of Uberlândia (Protocol 069/2013). After washing, the cell suspension (4.0 × 10^6/mL) was seeded (0.1 mL) in 96-well flat bottom plates. Macrophages were allowed to adhere for 2 h and non-adherent cells were removed by washing with RPMI. Then, the compounds were added to the wells at different concentrations and the cells were further cultured in RPMI-1640 supplemented with 10% FBS for 24 h at 37 °C in a humidified 5% CO2 atmosphere. Thereafter, the medium was replaced with fresh RPMI containing 0.5 mg/mL of MTT and the plates were incubated for additional 4 h. Supernatants were aspirated and the formazan crystals formed were dissolved in 100 μL of DMSO. After 15 min of incubation at room temperature, absorbance of solubilized MTT formazan product was spectrophotometrically measured at 570 nm.
as §4

[6] = Antileishmanial activity assay (growth inhibition, absorbance at 600 nm) against L. amazonensis promastigotes; assay type: cell-based, Leishmania amazonensis (strain MHOM/BR/1989/BA199); conditions: Balb/c, mouse (macrophages); Leishmania amazonensis (promastigotes), pH 7; CC50 macrophages / IC50 L. amazonensis; read-out: b SI (selective index): ratio between CC50 in murine macrophages and IC50 in L. amazonensis (WT)
Protocol: as §1, §2, §3, §4

[7] = tested on: Pseudomonas aeruginosa (ATCC 27853); test: Minimum inhibitory concentration, broth dilution (NCCLS M7-A6), P. aeruginosa; assay type: cell-based; conditions: as printed in footnote c
[8] = Antileishmanial activity assay (growth inhibition, absorbance at 600 nm) against L. infantum promastigotes; assay type: cell-based, Leishmania infantum (strain MCAN/BR/2002/BH400); conditions: Balb/c, mouse (macrophages); Leishmania infantum (promastigotes), pH 7; CC50 macrophages / IC50 L. infantum; read-out: a SI (selective index): ratio between CC50 in murine macrophages and IC50 in L. infantum
Protocol: as §1, §2, §3, §4

[9] = Cytotoxicity (MTT assay) against mouse peritoneal macrophages; assay type: cell-based, mouse (Balb/c); conditions: Balb/c, mouse, mouse peritoneal macrophages, murine peritoneal macrophages, read-out: CC50: concentration that is cytotoxic against 50% of macrophages
Protocol: as §6, §7, §4

[10] = tested on: L. infantum promastigotes; test: Antileishmanial activity assay (growth inhibition, absorbance at 600 nm) against L. infantum promastigotes; assay type: cell-based, Leishmania infantum (strain MCAN/BR/2002/BH400); conditions: Leishmania infantum, IC50/72 h (source says 48 h), non-linear regression, read-out: IC50 (μM) ± SEM, L. infantum strain
[11] = tested on: L. amazonensis promastigotes; design: method as in PMID 23099618; conditions: read-out: IC50 (μM) ± SEM, L. amazonensis strain; cited from earlier work
[12] = tested on: Pseudomonas aeruginosa (ATCC 27853); design: method as in doi:10.1016/j.molstruc.2010.11.048; conditions: cited from earlier work
Leishmania promastigotes = tested on: Leishmania promastigotes; design: method as in PMID 19633606; conditions: cited from earlier work
[13] = Pseudomonas aeruginosa, ATCC27853, 100% inhibition of growth
[14] = Staphylococcus aureus, ATCC6538

| Compound | b SI (selective index): ratio between CC50 in murine macrophages and IC50 in L. amazonensis (WT) [1] | IC50 [1] | MIC ([2]; 100% inhibition of growth) | MIC [3] | a SI (selective index): ratio between CC50 in murine macrophages and IC50 in L. infantum [4] | IC50 [4] | CC50 [5] | also measured |
| --- | --- | --- | --- | --- | --- | --- | --- | --- |
| CC(=O)Oc1ccccc1C(=O)[O][Sb]([O]C(=O)c1ccccc1OC(C)=O)([c]1ccccc1)([c]1ccccc1)[c]1ccccc1 [Complex 1, Bis-(acetylsalicylato)triphenylantimony(V)] | 2.0 | 30.7 ± 3.43 µM | 140.6 µM | 140.6 µM | 4.51 | 13.3 ± 0.74 µM | 60.5 ± 3.4 µM | – |
| CC(=O)Oc1ccccc1C(=O)[O][Bi]([O]C(=O)c1ccccc1OC(C)=O)([c]1ccccc1)([c]1ccccc1)[c]1ccccc1 [Complex 3, Bis-(acetylsalicylato)triphenylbismuth(V)] | 0.75 | 8.5 ± 0.56 µM | 8.2 µM | 4.1 µM | 0.74 | 8.6 ± 1.36 µM | 6.4 ± 0.5 µM | – |
| CC(=O)Oc1cccc(C(=O)[O][Bi]([O]C(=O)c2cccc(OC(C)=O)c2)([c]2ccccc2)([c]2ccccc2)[c]2ccccc2)c1 [Complex 4, Bis-(3-acetoxybenzoato)triphenylbismuth(V)] | <1 | 2.9 ± 0.17 µM | 16.5 µM | 4.1 µM | <1 | 4 ± 0.39 µM | 2 ± 0.1 µM | – |
| [Cl][Sb]([Cl])([c]1ccccc1)([c]1ccccc1)[c]1ccccc1 [Complex M1, triphenylantimony(V) dichloride] | 2.4 | 9.3 ± 0.26 µM | 235.8 µM | 235.8 µM | 1.7 | 13.2 ± 2.03 µM | 22.7 ± 0.93 µM | – |
| O=C([O-])[O-].c1cc[c]([Bi+2]([c]2ccccc2)[c]2ccccc2)cc1 [Complex M2, triphenylbismuth carbonate] | 4.6 | 2.7 ± 0.34 µM | 48.9 µM | 24.5 µM | 10.6 | 1.1 ± 0.37 µM | 12.1 ± 0.45 µM | – |
| CC(=O)Oc1ccccc1C(=O)O [HL1, acetylsalicylic acid] | – | – | – | – | – | – | – | selectivity ratio at 72 h [6]: < 1; MIC [2, 13]: > 555 µM; MIC [3, 14]: > 555 µM; d SI (selective index): ratio between MIC in murine macrophages and MIC in Staphylococcus aereus [3]: <1; c SI (selective index): ratio between CC50 in murine macrophages and MIC in Pseudomonas aureginosa [7]: <1; selectivity ratio at 72 h [8]: < 1; CC50 at 24 h [9]: 580.1 ± 1.07 µM; IC50 [10]: 8990 µM |
| CC(=O)Oc1cccc(C(=O)O)c1 [HL2, 3-acetoxybenzoic acid] | – | – | – | – | – | – | – | selectivity ratio at 72 h [6]: < 1; MIC [2, 13]: > 555 µM; MIC [3, 14]: > 555 µM; d SI (selective index): ratio between MIC in murine macrophages and MIC in Staphylococcus aereus [3]: <1; c SI (selective index): ratio between CC50 in murine macrophages and MIC in Pseudomonas aureginosa [7]: <1; selectivity ratio at 72 h [8]: < 1; CC50 at 24 h [9]: 2768 ± 9 µM |
| O=C([O-])[C@H]([O-])[C@@H]([O-])C(=O)[O-].O=C([O-])[C@H]([O-])[C@@H]([O-])C(=O)[O-].[K+].[K+].[Sb+3].[Sb+3] [TA, potassium antimony tartrate] | – | – | – | – | – | 100 ± 3 µM | – | IC50 [11]: 83 ± 1 µM |
| CN(C)[C@@H]1C(O)=C(C(N)=O)C(=O)[C@@]2(O)C(O)=C3C(=O)c4c(O)cccc4[C@@](C)(O)[C@H]3C[C@@H]12 [Tetracycline, tetracycline] | – | – | – | – | – | – | – | MIC [3, 14]: 3.5 µM (≈ 1.56 µg/mL); MIC, P. aeruginosa [12]: >96.7 [48] μM |
| Bis-(3-acetoxybenzoato)triphenylantimony(V) [Complex 2] | 3.40 | 8.9 ± 0.36 µM | 140.6 µM | 140.6 µM | 2.45 | 12.2 ± 0.91 µM | 30 ± 2.3 µM | – |
| meglumine antimoniate | – | – | – | – | – | – | – | activity in the promastigotes model (Leishmania promastigotes): inactive |
